Measurements published in patent US20120316342A1, “THERAPEUTIC AGENT FOR HEPATITIS C” (priority 2010, published 2012).
Entries after “also recorded” stand apart in the source; their conditions may differ.

Tests used:
Type in all cases: cell-based
[1] = system: NNC #2 (full-length replicon) cells; test: Anti-HCV activity using full-length replicon cells (HCV genomic RNA, real-time RT-PCR); conditions: FIGS. 3 to 6
Procedure: (§1) The 70% confluent #50-1 (subgenomic replion) cells or NNC #2 (full-length replicon) cells (Ishii et al., J. Virol., 2006, vol. 80, pp. 4510-4520) were dispersed in a culture bottle with the aid of trypsin, and the resulting dispersion was resuspended in a high-glucose Dulbecco's modified Eagle medium (DMEM) containing 10% FCS and 1 mg/ml G418 (Sigma) (see FIGS. 1 and 2). The cell suspension adjusted at 5×10^4 cells/ml with the use thereof was added to wells of a 96-well culture plate at 100 μl/well (the final cell density in each well: […]), and culture was conducted at 37° C. Supernatants of culture media were removed from wells of the plate on the following day, 200 μl each of the solutions of test compounds appropriately diluted with a G418-free culture solution were added, and culture was further continued. Samples were prepared from cells in each well 3 days later with the use of the TaqMan® Gene Expression Cell-to-CT® (Applied Biosystems). Reverse transcription was carried out in accordance with the protocols for the ABI 7500 PCR systems (Applied Biosystems) at 37° C. for 60 minutes, 95° C. for 5 minutes, and retained at 4° C. Real-time PCR was carried out in accordance with the protocols for the ABI 7500 real-time PCR systems (Applied Biosystems) at 50° C. for 2 minutes, 95° C. for 10 minutes, 40 cycles at 95° C. for 15 seconds, and 60° C. for 1 minute.
(§2) In accordance with the method mentioned above, the level of the HCV genomic RNA and, as the internal standard, the level of mRNA of glyceraldehyde-3-phosphate dehydrogenase (GAPDH) (a house keeping gene of the host cells) were assayed, and a percentage (%) relative to the level of RNA of a control group to which the test compound was not administered was determined. The dose-response relationship of the test compound was analyzed based on the measured level of the HCV genomic RNA to determine EC50, and the dose-response relationship of the test compound was analyzed based on the measured level of GAPDH RNA to determine CC50. The term “EC50” and “CC50” used herein refers to 50% effective concentration (μM) and 50% cytotoxic concentration (μM), respectively.

[2] = system: Subgenomic HCV RNA replicon cells (LucNeo#2) having a luciferase gene; test: Anti-HCV activity using replicon cells (luciferase assay); conditions: luciferase assay; for EC50: LucNeo#2 subgenomic replicon cells, 3 days, read-out: EC50; for anti-HCV activity (in words): Table 2, FIGS. 13 to 15
Procedure: Subgenomic HCV RNA replicon cells (LucNeo#2, Goto et al., Biochem. Biophys. Res. Commun., 2006, vol. 343, pp. 879-884) having a luciferase gene were suspended in a Dulbecco's modified Eagle medium (DMEM) containing 10% FBS and 1 mg/ml G418 (Sigma). The cells were incubated for 24 hours and then cultured in G418-free fresh media each containing test compounds at various concentrations for 3 days. In order to perform luciferase assays, the cells were washed with PBS and treated with a lysate for 10 minutes with intermittent agitation. A cell lysate (25 μl) was transferred to a white microtiter plate. Luciferase assay reagents (100 μl, Promega, Tokyo) were added to each well and the luciferase activity was measured with a luminometer.
(§3) Based on the luciferase assay results, the HCV genomic RNA level was measured, and a percentage (%) relative to the level of RNA of a control group to which the test compound was not administered was determined. Based on the results of tetrazolium staining, cell survival rates (%) of the group to which the test compound had been administered and of a control group were determined. The dose-response relationship of the test compound was analyzed based on the results of quantitative luciferase assays to determine EC50(μM), and the dose-response relationship of the test compound was analyzed based on the results of tetrazolium staining to determine CC50.

[3] = system: Subgenomic HCV RNA replicon cells (LucNeo#2); test: Cytotoxicity (cell survival rate) by tetrazolium staining in luciferase replicon cells; conditions: for CC50: LucNeo#2 subgenomic replicon cells
Procedure: A tetrazolium staining solution (10 μl, Seikagaku Corporation, Tokyo) was added to each well in order to examine cytotoxicity (a cell survival rate). After the cells were incubated for 1 hour, the absorbance at the characteristic absorption wavelength (450 nm) was measured with the use of a microplate reader.
as §3

[4] = system: #50-1 (subgenomic replion) cells; test: Anti-HCV activity using subgenomic replicon cells (HCV genomic RNA, real-time RT-PCR); conditions: concentration of 10 μM, relative to control group without test compound
Procedure: as §1, §2

Row | Compound | EC50 [2] [µM] | CC50 [3] [µM] | further results
1 | O=c1c2ccccc2c2cc(C(O)(C(F)(F)F)C(F)(F)F)ccc2n1Cc1ccccc1 [AA-04, 2-(1′,1′,1′,3′,3′,3′-hexafluoro-2′-hydroxypropan-2′-yl)-5-benzylphenanthridin-6(5H)-one] |  |  | anti-HCV activity (in words) [1]: high degree of anti-HCV activity
2 | CCCCCCn1c(=O)c2ccccc2c2cc(C(O)(C(F)(F)F)C(F)(F)F)ccc21 [AA-25, 2-(1′,1′,1′,3′,3′,3′-hexafluoro-2′-hydroxypropan-2′-yl)-5-hexylphenanthridin-6(5H)-one] |  |  | anti-HCV activity (in words) [1]: high degree of anti-HCV activity
3 | CCCCn1c(=O)c2ccccc2c2cc(C(O)(C(F)(F)F)C(F)(F)F)c3c(c21)OCO3 [HA-718, 4-butyl-1′-(1′,1′,1′,3′,3′,3′-hexafluoro-2′-hydroxypropan-2′-yl)-[1,3]dioxolo[4,5-c]phenanthridin-5(4H)-one] | 0.29 | 24.2 | 
4 | CCCCn1c(=O)c2cc(OC)ccc2c2cc(C(O)(C(F)(F)F)C(F)(F)F)c3c(c21)OCO3 [HA-719, 4-butyl-11-(1′,1′,1′,3′,3′,3′-hexafluoro-2′-hydroxypropan-2′-yl)-7-methoxy-[1,3]dioxolo[4,5-c]phenanthridin-5(4H)-one] | 0.05 | 6.4 | anti-HCV activity (in words) [2]: very high; also recorded: high degree of anti-HCV activity; cytotoxicity (in words) ([3]; Table 2): high degree of cytotoxicity
5 | CCCCn1c(=O)c2ccccc2c2cc(C(O)(C(F)(F)F)C(F)(F)F)c(OC)c(OC)c21 [HA-726, 5-butyl-2-(1′,1′,1′,3′,3′,3′-hexafluoro-2′-hydroxypropan-2′-yl)-3,4-dimethoxy-phenanthridin-6(5H)-one] | 2.6 | 10.4 | 
6 | CCCCn1c(=O)c2cc(OC)ccc2c2cc(C(O)(C(F)(F)F)C(F)(F)F)c(OC)c(OC)c21 [HA-727, 5-butyl-2-(1′,1′,1′,3′,3′,3′-hexafluoro-2′-hydroxypropan-2′-yl)-3,4,8-trimethoxy-phenanthridin-6(5H)-one] | 1.8 | 6.8 | 
7 | CCCCn1c(=O)c2cc(OC)ccc2c2cc(C(OCc3ccccc3)(C(F)(F)F)C(F)(F)F)c3c(c21)OCO3 [HA-758, 11-(2′-benzyloxy-1′,1′,1′,3′,3′,3′-hexafluoropropan-2′-yl)-4-butyl-7-methoxy-[1,3]-dioxolo[4,5-c]phenanthridin-5(4H)-one] | 1.71 | > 100 | anti-HCV activity (in words) [2]: high degree of anti-HCV activity at non-cytotoxic concentrations; also recorded: high degree of anti-HCV activity
8 | CCCCn1c(=O)c2cc(OC)c(OC)cc2c2cc(C(O)(C(F)(F)F)C(F)(F)F)ccc21 [KZ25, 5-butyl-2-(1′,1′,1′,3′,3′,3′-hexafluoro-2′-hydroxypropan-2′-yl)-8,9-dimethoxy-phenanthridin-6(5H)-one] | > 2.8 | 2.8 | 
9 | CCCCn1c(=O)c2cc3c(cc2c2cc(C(O)(C(F)(F)F)C(F)(F)F)ccc21)OCO3 [KZ26, 5-butyl-2-(1′,1′,1′,3′,3′,3′-hexafluoro-2′-hydroxypropan-2′-yl)-[1,3]dioxolo[4,5-j]phenanthridin-6(5H)-one] | 2.3 | > 100 | anti-HCV activity (in words) [2]: high degree of anti-HCV activity at non-cytotoxic concentrations
10 | CCCCn1c(=O)c2c(OC)c(OC)ccc2c2cc(C(O)(C(F)(F)F)C(F)(F)F)ccc21 [KZ27, 5-butyl-2-(1′,1′,1′,3′,3′,3′-hexafluoro-2′-hydroxypropan-2′-yl)-7,8-dimethoxy-phenanthridin-6(5H)-one] | 5.5 | 14.2 | 
11 | CCCCn1c(=O)c2cc(OC)c(OC)c(OC)c2c2cc(C(O)(C(F)(F)F)C(F)(F)F)ccc21 [KZ28, 5-butyl-2-(1′,1′,1′,3′,3′,3′-hexafluoro-2′-hydroxypropan-2′-yl)-8,9,10-trimethoxy-phenanthridin-6(5H)-one] | 8.3 | 9.4 | 
12 | CCCCn1c(=O)c2ccccc2c2c(OC)c(C(OC)(C(F)(F)F)C(F)(F)F)cc(OC)c21 [KZ29, 5-butyl-2-(1′,1′,1′,3′,3′,3′-hexafluoro-2′-methoxypropan-2′-yl)-1,4-dimethoxy-phenanthridin-6(5H)-one] | 30.4 | > 100 | 
13 | CCCCn1c(=O)c2cc(OC)ccc2c2c(OC)c(C(OC)(C(F)(F)F)C(F)(F)F)cc(OC)c21 [KZ30, 5-butyl-2-(1′,1′,1′,3′,3′,3′-hexafluoro-2′-methoxypropan-2′-yl)-1,4,8-trimethoxy-phenanthridin-6(5H)-one] | 9.2 | > 100 | anti-HCV activity (in words) [2]: high degree of anti-HCV activity at non-cytotoxic concentrations
14 | CCCCn1c(=O)c2c(OC)cccc2c2cc(C(O)(C(F)(F)F)C(F)(F)F)ccc21 [KZ31, 5-butyl-2-(1′,1′,1′,3′,3′,3′-hexafluoro-2′-hydroxypropan-2′-yl)-7-methoxy-phenanthridin-6(5H)-one] | 10 | 12.6 | 
15 | CCCCn1c(=O)c2ccc(OC)cc2c2cc(C(O)(C(F)(F)F)C(F)(F)F)ccc21 [KZ32, 5-butyl-2-(1′,1′,1′,3′,3′,3′-hexafluoro-2′-hydroxypropan-2′-yl)-9-methoxy-phenanthridin-6(5H)-one] | 16.6 | 28.9 | 
16 | CCCCn1c(=O)c2cccc(OC)c2c2cc(C(O)(C(F)(F)F)C(F)(F)F)ccc21 [KZ33, 5-butyl-2-(1′,1′,1′,3′,3′,3′-hexafluoro-2′-hydroxypropan-2′-yl)-10-methoxy-phenanthridin-6(5H)-one] | 5 | 6.9 | 
17 | CCCCn1c(=O)c2ccccc2c2c(O)c(C(O)(C(F)(F)F)C(F)(F)F)ccc21 [KZ35, 5-butyl-2-(1′,1′,1′,3′,3′,3′-hexafluoro-2′-hydroxypropan-2′-yl)-1-hydroxy-phenanthridin-6(5H)-one] | 44 | 52.3 | 
18 | CCCCn1c(=O)c2ccccc2c2cc(C(O)(C(F)(F)F)C(F)(F)F)c(OC)cc21 [KZ36, 5-butyl-2-(1′,1′,1′,3′,3′,3′-hexafluoro-2-hydroxypropan-2′-yl)-3-methoxy-phenanthridin-6(5H)-one] | 2.2 | 5.7 | 
19 | CCCCn1c(=O)c2ccccc2c2cc(C(OCc3ccccc3)(C(F)(F)F)C(F)(F)F)c(OC)cc21 [KZ37, 2-(2′-benzyloxy-1′,1′,1′,3′,3′,3′-hexafluoropropan-2′-yl)-5-butyl-3-methoxy-phenanthridin-6(5H)-one] | 2.6 | > 100 | anti-HCV activity (in words) [2]: high degree of anti-HCV activity at non-cytotoxic concentrations; also recorded: high degree of anti-HCV activity
20 | CCCCn1c(=O)c2c(OC)cc(OC)cc2c2cc(C(O)(C(F)(F)F)C(F)(F)F)ccc21 [KZ38, 5-butyl-2-(1′,1′,1′,3′,3′,3′-hexafluoro-2′-hydroxypropan-2′-yl)-7,9-dimethoxy-phenanthridin-6(5H)-one] | 2.6 | 8.2 | 
21 | CCCCn1c(=O)c2c(OC)c(OC)c(OC)cc2c2cc(C(O)(C(F)(F)F)C(F)(F)F)ccc21 [KZ39, 5-butyl-2-(1′,1′,1′,3′,3′,3′-hexafluoro-2′-hydroxypropan-2′-yl)-7,8,9-trimethoxy-phenanthridin-6(5H)-one] | > 2 | 2 | 
22 | CCCCn1c(=O)c2ccccc2c2c(C(C)C)cccc21 [MN315-A, 5-butyl-1-isopropylphenanthridin-6(5H)-one] |  |  | HCV genomic RNA level [4]: 46.3%
23 | CCCCn1c(=O)c2ccccc2c2ccc(C(C)C)cc21 [MN315-B, 5-butyl-3-isopropylphenanthridin-6(5H)-one] |  |  | HCV genomic RNA level [4]: 14.7%
